Assay results published in ChEMBL document CHEMBL1155734, “Multiplolides A and B, new antifungal 10-membered lactones from Xylaria multiplex” (J Nat Prod, 2001).
In brackets after ≈: the same amount, converted by molar mass. Activity calls are given as the source filed them. The rule behind the calls is not given here.

Columns and labels:
[1] = system: Candida albicans; test: Antifungal activity against Candida albicans by colorimetric method; format: functional, organism-based
[2] = system: Plasmodium falciparum; test: Antimalarial activity as growth inhibition of Plasmodium falciparum K1 by [3H]hypoxanthine uptake; format: functional, organism-based
[3] = system: Plasmodium falciparum; test: Antimalarial activity as growth inhibition of Plasmodium falciparum K1 at 20 ug/mL by [3H]hypoxanthine uptake; format: functional, organism-based
[4] = system: BC1; test: Cytotoxicity against human BC1 cells at 20 ug/mL; format: functional, cell-based
[5] = system: KB; test: Cytotoxicity against human KB cells at 20 ug/mL; format: functional, cell-based

SMILES	IC50 [1]	IC50 [2]	Activity [3]	Activity [4]	Activity [5]
C[C@@H]1[C@H](O)[C@@H](C)/C=C/C=C/C=C/C=C/C=C/C=C/C=C/[C@H](O[C@@H]2O[C@H](C)[C@@H](O)[C@H](N)[C@@H]2O)C[C@@H]2O[C@](O)(C[C@@H](O)C[C@@H](O)[C@H](O)CC[C@@H](O)C[C@@H](O)CC(=O)O[C@H]1C)C[C@H](O)[C@H]2C(=O)O [AMPHOTERICIN B]	0.01 µg/mL (≈ 0.0108 µM)	–	–	–	–
C[C@@H]1CC[C@H]2[C@@H](C)C(=O)O[C@@H]3O[C@@]4(C)CC[C@@H]1[C@]32OO4 [ARTEMISININ]	–	0.001 µg/mL (≈ 0.00354 µM)	–	–	–
C[C@@H]1C[C@@H](O)[C@@H](O)/C=C/[C@@H]2O[C@@H]2C(=O)O1 [MULTIPLOLIDE A]	7 µg/mL (≈ 32.7 µM)	–	inactive	inactive	inactive
C/C=C/C(=O)O[C@@H]1C[C@@H](C)OC(=O)C2OC2/C=C/[C@@H]1O (stereo not given in full) [MULTIPLOLIDE B]	2 µg/mL (≈ 7.08 µM)	–	inactive	inactive	inactive
